Measured values from PubChem BioAssay (NCI).
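GI50: concentration for 50% inhibition of growth. TGI marks complete inhibition of growth.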

Key:
Experiment in all cases: growth of human tumour cells (NCI), 384-well format
A549 NSCLC = test system: A549 NSCLC
HCT-15 colon = test system: HCT-15 colon
OVCAR-5 ovarian = test system: OVCAR-5 ovarian
SR leukemia = test system: SR leukemia
HOP-92 NSCLC = test system: HOP-92 NSCLC
OVCAR-8 ovarian = test system: OVCAR-8 ovarian
CAKI-1 renal = test system: CAKI-1 renal
NCI-H23 lung = test system: NCI-H23 lung
TK-10 renal = test system: TK-10 renal
K-562 leukemia = test system: K-562 leukemia
HS 578T breast = test system: HS 578T breast
MDA-MB-468 breast = test system: MDA-MB-468 breast
SNB-19 CNS = test system: SNB-19 CNS

Structure (SMILES): O=S(=O)(c1ccc2c(c1)C(=NO)c1cc(S(=O)(=O)N3CCCCC3)ccc1-2)N1CCCCC1
- GI50 (A549 NSCLC): 171 nM
- TGI (A549 NSCLC): 315 nM
- GI50 (HCT-15 colon): 186 nM
- TGI (HCT-15 colon): 333 nM
- GI50 (OVCAR-5 ovarian): 184 nM
- TGI (OVCAR-5 ovarian): 324 nM
- GI50 (SR leukemia): 158 nM
- TGI (SR leukemia): 294 nM
- GI50 (HOP-92 NSCLC): 116 nM
- TGI (HOP-92 NSCLC): 242 nM
- GI50 (OVCAR-8 ovarian): 153 nM
- TGI (OVCAR-8 ovarian): 288 nM
- GI50 (CAKI-1 renal): 19 nM
- TGI (CAKI-1 renal): 35.2 nM
- GI50 (NCI-H23 lung): 92.7 nM
- TGI (NCI-H23 lung): 228 nM
- GI50 (TK-10 renal): 187 nM
- TGI (TK-10 renal): 336 nM
- GI50 (K-562 leukemia): 170 nM
- TGI (K-562 leukemia): 313 nM
- GI50 (HS 578T breast): 175 nM
- TGI (HS 578T breast): 314 nM
- GI50 (MDA-MB-468 breast): 58.4 nM
- TGI (MDA-MB-468 breast): 171 nM
- GI50 (SNB-19 CNS): 189 nM
- TGI (SNB-19 CNS): 332 nM
